The values below come from patent US20240002326A1, “COMPOUNDS AND USE THEREOF IN METHODS OF TREATMENT” (The University of Queensland, priority 2016, published 2024).

The CC50 is the concentration that lowers cell viability or growth by half. As usually defined, the IC50 is the point on the concentration scale where inhibition reaches its midpoint.

The target of one data set is SOX18[109] HMG fragment (Mus musculus (Mouse), UniProt P43680). The data set is described as follows: FP DNA-binding competition assay, SOX18[109] HMG fragment. The following applies: for remaining activity at 50 µM / remaining activity at 200 µM: SOX18/DNA binding; for remaining activity at 50 µM: read-out: FP bound fraction (%) 50 μM; for remaining activity at 200 µM: read-out: FP bound fraction (%) 200 μM; for SOX18-DNA binding inhibition (FP, words): SAR library, SOX18[109]. As to the method: Mouse SOX HMG fragments. The HMG domains of mouse SOX2 (Group B), SOX11 (Group C), SOX6 (Group D), SOX9 (Group E), SOX18 (Group F) and SOX15 (Group G) were BP cloned from cDNA templates (IMAGE cDNA clone IDs: Sox18: 3967084; Sox9: 5354229; Sox4: 6822618) into a pDONRTM221 pENTRY vector, sequenced and recombined into a pETG20A or a pHisMBP expression plasmid using Gateway®LR Technology (Ng et al., 2012). Constructs were transformed into Escherichia coli BL21(DE3) cells (Luria-Bertani, 100 μg/ml Ampicillin).
(§1) The DNA-binding competition assay was performed in black 384-well plates, with mouse full length SOX18, or SOX-HMG fragments. All experiments were performed using a fluorescently-labelled Prox1-DNA element. Controls consisted of free labelled DNA (low FP milli-Polarization index, mP), labelled DNA in presence of protein (negative control, high mP), and labelled DNA and protein in presence of competing excess of unlabelled DNA (positive control, low mP)
(§2) The DNA-binding competition assay was performed in 25 uL, in black 384-well plates, using either 30 mM HEPES (N-2-Hydroxyethylpiperazine-N′-2-Ethanesulfonic Acid) (pH 7.5, with 100 mM KCl, 40 mM NaCl, 10 mM NH4OAc, […], 2 mM MgCl2, 0.5 mM EDTA, 0.01% NP-40) for mouse full length SOX18, or Tris-NaCl (10 mM Tris pH 8.0 and 100 mM NaCl) for SOX-HMG fragments. All experiments were performed using a 40 bp double-stranded Prox1-DNA element with 5′ fluorescein amidite (FAM) label (Sigma Proligo or InVitrogen). Optimum binding levels were obtained at 200 nM of mouse full length SOX18 and 60 nM of SOX-HMG fragment, in presence of 5 nM labelled DNA. Controls consisted of free labelled DNA (low FP milli-Polarization index, mP), labelled DNA in presence of protein (negative control, high mP), and labelled DNA and protein in presence of 400 time competing excess of unlabelled DNA (positive control, low mP). Depending on compound, final DMSO concentrations ranged from 2 to 3.33% v/v. After mixing protein, DNA probe and compound, plates were sealed and briskly agitated in the dark for 5 minutes at room temperature, 10 minutes at 37° C., and 30 minutes at room temperature, before reading fluorescence polarization on a Tecan M1000Pro (λexc=485 nm, λem=525 nm). All experiments were performed in triplicates.
In order to pinpoint the possible binding site of the small molecules, the FP assays were repeated with a shorter, DNA-binding centred protein fragment. The DNA binding domain of SOX TFs consists of the […] amino acid long High Mobility Group (HMG) box. The 109 amino-acid long SOX18 fragment (SOX18[109]) corresponds to residues 69-177 (numbering by mouse SOX18), which includes the HMG box (residues 78-149) and N- and C-terminal flanking sequences of 9 and 28 amino-acids, respectively.

A short description of data set [1]: Cytotoxicity assay (Alamar blue), HEK293. In kind it is cell-based. The note with it: human, HEK293 cells; HEK293, 24 h. As for the experimental part:
Cell toxicity was determined using Alamar blue, as previously described (McMillian et al., 2002). COS-7 cells were seeded as 7000 cells per well in black wall clear bottom 96-well plates in DMEM medium (Life Technologies Australia) with 10% FBS. HepG2 and HEK293 cell lines, from ATCC, were seeded as 5000 cells per well in black wall clear bottom 384-well cell culture plates in DMEM with 1% FBS. Cells were cultured for 24 h at 37° C., 5% CO2. A serial dilution of compounds was added, with a final DMSO concentration adjusted to 0.5% v/v. Cells were incubated for another 24 h. 1 Triton X-100 was used as negative control, and 0.5% DMSO as positive control. 5 μM Alamar blue was added to each well and fluorescence was measured (λexc=560 nm, λem=590 nm) after 2 h incubation at 37° C. Data were analysed using Prism software.
(In general: The colour change of resazurin is a common sign of viable cells or microbes.)

Data set [2] in a line: Cytotoxicity assay (Alamar blue), HepG2. The format is cell-based. The note with it: human, HepG2 cells; HepG2, 24 h.
For the next data set, the target named is full-length mouse SOX18 (Mus musculus (Mouse), UniProt P43680). The data set is described as follows: FP DNA-binding competition assay, full-length SOX18. The following applies: full-length mouse SOX18, Prox1-DNA probe; for IC50: read-out: FP IC50 ± SD. As for the experimental part:
Full-length mouse SOX18. A N-terminally tagged mouse HIS-GST-SOX18 was recombinantly expressed in Sf9 cells, purified on GST resin (GE Healthcare Life Sciences, Sweden) and eluted in Tris buffer (50 mM Tris, 500 mM NaCl, 10 mM reduced glutathione, pH 8.0). cDNA clone of mouse Sox18 was PCR amplified and cloned into the pOPIN-GST vector, to generate N-terminally tagged HIS-GST-SOX18. A sequence verified construct was co-transfected with flashBACULTRA (Oxford Expression Technologies, Oxford, United Kingdom) baculovirus DNA onto Spodoptera frugiperda Sf9 cells to obtain recombinantly expressed HIS-GST-SOX18. High Five cells (BTI-TN-5B1-4) in Sf-900™ II serum-free medium were infected at cell density of 1.5×10^6 cells/mL with a multiplicity of infection (MOI) of 5 PFU/cell, and incubated at 21° C. for 144 h before harvest. The cell pellet from 100 mL of expression culture was resuspended in 30 mL of phosphate lysis buffer (50 mM sodium phosphate, 500 mM sodium chloride, 1% Triton X-100, 2 mM magnesium chloride, one tablet of cOmplete Protease Inhibitor Cocktail, pH 7.5) and sonicated on ice for 20 s. The cell lysate was centrifuged at 17,000×g for 40 min at 4° C. Supernatant was incubated with Benzonase Nuclease (Merck Millipore) for 1 h at room temperature for DNA degradation, before being mixed with 500 μL GST resin (GE Healthcare Life Sciences, Sweden) and incubated on a rotating wheel at room temperature for 1 h. The sample was centrifuged at 500×g for 1 min to remove unbound protein in the supernatant. The resin was further washed with 50 resin volumes (RV) wash buffer (50 mM sodium phosphate, 500 mM NaCl, pH 7.5), with unbound protein removed by centrifugation as above. Bound protein was eluted from the resin with 3×1 RV elution buffer (50 mM Tris, 500 mM NaCl, 10 mM reduced glutathione, pH 8.0), collecting the supernatant by centrifugation as above.
as §1, §2

SOX18[109] HMG fragment, sequence (P43680 69-177): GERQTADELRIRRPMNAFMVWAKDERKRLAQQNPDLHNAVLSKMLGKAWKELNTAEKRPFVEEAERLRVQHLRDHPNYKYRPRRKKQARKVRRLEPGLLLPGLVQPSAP
full-length mouse SOX18, sequence (P43680 whole entry): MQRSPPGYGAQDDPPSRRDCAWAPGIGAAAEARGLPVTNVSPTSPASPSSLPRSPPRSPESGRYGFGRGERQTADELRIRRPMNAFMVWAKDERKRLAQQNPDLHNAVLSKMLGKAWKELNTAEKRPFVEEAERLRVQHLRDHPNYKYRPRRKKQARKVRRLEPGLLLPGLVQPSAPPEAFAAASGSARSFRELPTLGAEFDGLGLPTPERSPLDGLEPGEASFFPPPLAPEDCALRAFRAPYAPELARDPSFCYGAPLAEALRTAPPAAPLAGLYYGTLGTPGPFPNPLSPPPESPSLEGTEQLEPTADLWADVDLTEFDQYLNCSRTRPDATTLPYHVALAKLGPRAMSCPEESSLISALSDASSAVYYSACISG

As for `COc1cc(CCc2ccc3ccccc3c2)cc(OC)c1OC` [Sm43, 2-(3,4,5-trimethoxyphenethyl)naphthalene], on SOX18[109] HMG fragment, the remaining activity at 50 µM was 106 ± 9.5% and the remaining activity at 200 µM was determined as 113 ± 3.6%. Further, the 50% cytotoxic concentration (CC50) at 24 h in data set [1] was > 100 µM. Also, the CC50 at 24 h in data set [2] was > 100 µM.
For `COc1cc(/C=C/c2ccc3ccccc3c2)c(C(=O)O)c(OC)c1` [Sm27, (E)-2,4-dimethoxy-6-(2-(naphthalen-2-yl)vinyl)benzoic acid], on SOX18[109] HMG fragment, the remaining activity at 50 µM came out at 97 ± 6.1% and the remaining activity at 200 µM amounted to 92.8 ± 21.7%. In addition, the half-maximal cytotoxic concentration (CC50) at 24 h in data set [1] was > 100 µM. In data set [2], the CC50 at 24 h is > 100 µM.
As for `COc1cc(/C=C/c2ccccc2)cc(OC)c1OC` [Sm38, (E)-1,2,3-trimethoxy-5-styrylbenzene], on SOX18[109] HMG fragment, the remaining activity at 50 µM stood at 102 ± 11.2% and the remaining activity at 200 µM is 120 ± 6.6%. The half-maximal cytotoxic concentration (CC50) at 24 h in data set [1] was > 100 µM. Besides, the cytotoxic concentration (CC50) at 24 h in data set [2] is > 100 µM.
As for `O=C(O)c1c(O)cccc1CCc1ccccc1` [Sm22, 2-hydroxy-6-phenethylbenzoic acid], on SOX18[109] HMG fragment, the remaining activity at 50 µM was 98.1 ± 6.1%; the remaining activity at 200 µM was determined as 93.1 ± 9.5%; the “SOX18-DNA binding inhibition (FP, words)” value is listed as “completely eliminated all activity”. In addition, the CC50 at 24 h in data set [1] is > 100 µM. Also, in data set [2], the half-maximal cytotoxic concentration (CC50) at 24 h is > 100 µM.
On to `CCCCCCCCCCCc1cccc(O)c1C(=O)O` [Sm1, 6-undecyl salicylic acid], for which, at full-length mouse SOX18, the “FP IC50 ± SD” value was “high micromolar range” and the IC50 was 348 ± 1.1 µM.
In the case of `CCN(CC)C(=O)c1c(/C=C/c2ccc3ccccc3c2)cccc1OC` [Sm16, (E)-N,N-diethyl-2-methoxy-6-(2-(naphthalene-2-yl)vinyl)benzamide], at SOX18[109] HMG fragment, the remaining activity at 50 µM is 99.3 ± 6.2% and the remaining activity at 200 µM was found to be 109 ± 4.9%. The cytotoxic concentration (CC50) at 24 h in data set [1] was > 100 µM.
For the compound `Oc1cc(CCc2ccc3ccccc3c2)cc(O)c1O` [Sm44, 5-(2-(naphthalen-2-yl)ethyl)benzene-1,2,3-triol], at SOX18[109] HMG fragment, the remaining activity at 50 µM stood at 108 ± 10.1%; the remaining activity at 200 µM is 53.5 ± 9.6%; the “SOX18-DNA binding inhibition (FP, words)” value was “not active”. Further, the CC50 at 24 h in data set [1] was > 100 µM. Also, the CC50 at 24 h in data set [2] is > 100 µM.
As for `O=C(O)c1c(O)cc(Cl)cc1/C=C/c1ccc2ccccc2c1` [Sm32, (E)-4-chloro-2-hydroxy-6-(2-(naphthalen-2-yl)vinyl)benzoic acid], on SOX18[109] HMG fragment, the remaining activity at 50 µM came to 3.9 ± 6% and the remaining activity at 200 µM is 10.9 ± 5.2%. Moreover, half-maximal cytotoxicity in data set [1] (CC50 at 24 h) was put at 37.6 µM. The compound also had a 50% cytotoxic concentration (CC50) at 24 h in data set [2] of 24 µM.
Taken in the same sequence, the figures for `COc1cc(CCc2ccc3ccccc3c2)c(C(=O)O)c(OC)c1` [Sm30, 2,4-dimethoxy-6-(2-(naphthalen-2-yl)ethyl)benzoic acid] were 99 ± 7.6%, 109 ± 2.8%, > 100 µM and > 100 µM.
Turning to `CCN(CC)C(=O)c1c(/C=C\c2ccc3ccccc3c2)cccc1OC` [Sm15, (Z)-N,N-diethyl-2-methoxy-6-(2-(naphthalen-2-yl)vinyl)benzamide], on SOX18[109] HMG fragment, the remaining activity at 50 µM was 103 ± 7.4% and the remaining activity at 200 µM is 121 ± 4.7%. In data set [1], the half-maximal cytotoxic concentration (CC50) at 24 h is > 100 µM.
Consider `COc1cc(CCc2ccccc2)cc(OC)c1OC` [Sm39, 1,2,3-trimethoxy-5-phenethylbenzene], for which, at SOX18[109] HMG fragment, the remaining activity at 50 µM was 102 ± 9.7% and the remaining activity at 200 µM amounted to 117 ± 8.1%. Also, the CC50 at 24 h in data set [1] was > 100 µM. In data set [2], the CC50 at 24 h was > 100 µM.
Take `CCCCCCCCCCCCCc1cccc(O)c1C(=O)O` [Sm2, 6-tridecyl salicylic acid]: at full-length mouse SOX18, the “FP IC50 ± SD” value was “high micromolar range” and the IC50 was 341 ± 1.1 µM.
Regarding `COc1cc(O)c(C(=O)O)c(CCc2ccc3ccccc3c2)c1` [Sm29, 2-hydroxy-4-methoxy-6-(2(naphthalen-2-yl)ethyl)benzoic acid], at SOX18[109] HMG fragment, the remaining activity at 50 µM came out at 73 ± 1.9%. Also, the remaining activity at 200 µM on SOX18[109] HMG fragment was 2 ± 7.2%. The figures for the CC50 at 24 h in data set [1] and in data set [2] were 64.4 µM and 71.2 µM, respectively.
Taken in the same sequence, the figures for `O=C(O)c1c(O)cccc1/C=C/c1ccccc1` [Sm21, (E)-2-hydroxy-6-styrylbenzoic acid] were 103 ± 8.8%, 98.1 ± 2.1%, > 100 µM and > 100 µM.
Consider `Cc1cc(O)c(C(=O)O)c(CCc2ccc3ccccc3c2)c1` [Sm36, 2-hydroxy-4-methyl-6-(2-(naphthalen-2-yl)ethyl)benzoic acid], for which, on SOX18[109] HMG fragment, the remaining activity at 50 µM is 10.9 ± 9.6% and the remaining activity at 200 µM is -3.9 ± 6.8%. In data set [1], the half-maximal cytotoxic concentration (CC50) at 24 h came out at 39.9 µM. In data set [2], this compound came in with a cytotoxic concentration (CC50) at 24 h of 37.7 µM.
For `Cc1cc(O)c(C(=O)O)c(/C=C/c2ccc3ccccc3c2)c1` [Sm35, (E)-2-hydroxy-4-methyl-6-(2-(naphthalen-2-yl)vinyl)benzoic acid] the same measures were -1.5 ± 3.5%, -3.7 ± 7.9%, 52.2 µM and 30.3 µM.
